In ChEMBL document CHEMBL1201862, “PubChem BioAssay data set” (2004):
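Briefly, cells in 96-well plates were exposed to five compound concentrations for 48 h, and endpoints were estimated by linear interpolation. GI50: concentration for 50% inhibition of growth.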 The source made the active and inactive calls. Cut-off read from the data, not from the text of the source: active = GI50 up to about 1.1 µM and inactive = higher.

Legend:
Experiment in all cases: DTP human tumour cell line panel, 48 h
[1] = tested on: RXF 393
[2] = tested on: UACC-62
[3] = tested on: UACC-257
[4] = tested on: T47D
[5] = tested on: SK-MEL-5
[6] = tested on: OVCAR-8
[7] = tested on: LOX IMVI
[8] = tested on: HOP-62
[9] = tested on: SK-MEL-28
[10] = tested on: OVCAR-5
[11] = tested on: MOLT-4
[12] = tested on: K562
[13] = tested on: SNB-75
[14] = tested on: RPMI-8226
[15] = tested on: HT-29
[16] = tested on: NCI-H226
[17] = tested on: NCI-H460
[18] = tested on: HCC 2998
[19] = tested on: SR
[20] = tested on: HL-60

Measured: GI50

CCOP(=O)(CN1CCNCCN(CP(=O)(OCC)OCC)CC1)OCC
inactive: [1] > 100 µM | [2] > 100 µM | [3] > 100 µM | [4] > 100 µM | [5] > 100 µM | [6] > 100 µM | [7] > 100 µM | [8] > 100 µM | [9] > 100 µM | [10] > 100 µM | [11] > 100 µM | [12] > 100 µM | [13] > 100 µM | [14] > 100 µM | [15] > 100 µM | [16] > 100 µM | [17] > 100 µM

COc1ccc(NC(=O)CC/C(CC(=O)C(C)(C)C)=N\NC(=O)C(=O)NN)cc1
inactive: [1] > 100 µM | [2] > 100 µM | [3] > 100 µM | [5] > 100 µM | [18] > 100 µM | [7] > 100 µM | [8] > 100 µM | [9] > 100 µM | [10] > 100 µM | [19] > 100 µM | [11] > 100 µM | [12] > 100 µM | [13] > 100 µM | [20] > 100 µM | [14] > 100 µM | [15] > 100 µM | [16] > 100 µM | [17] > 100 µM

Nc1ccc2ncc(NCc3ccc(F)cc3)nc2c1
inactive: [1] 34.4 µM | [2] 54.2 µM | [3] > 100 µM | [5] 48.1 µM | [18] > 100 µM | [6] 90.4 µM | [7] 75 µM | [8] 40.6 µM | [9] > 100 µM | [10] > 100 µM | [19] 70 µM | [11] 41.9 µM | [12] 87.9 µM | [13] 25.4 µM | [20] 95.9 µM | [14] 62.2 µM | [15] > 100 µM | [16] 40.9 µM | [17] 74.6 µM

Cc1c(N)c(C#N)c2n(C)c3ncccc3n2c1=O
inactive: [1] > 100 µM | [2] > 100 µM | [3] > 100 µM | [5] > 100 µM | [18] > 100 µM | [6] > 100 µM | [7] > 100 µM | [8] > 100 µM | [9] > 100 µM | [19] > 100 µM | [11] > 100 µM | [12] > 100 µM | [13] > 100 µM | [20] > 100 µM | [14] > 100 µM | [15] > 100 µM | [16] > 100 µM | [17] > 100 µM

CCOC(=O)C1(C(=O)OCC)C(C(C)(C)C)=C(C)c2ccccc21
inactive: [1] 13.5 µM | [2] 12.9 µM | [3] 12.2 µM | [5] 9.59 µM | [18] 16 µM | [6] 20.6 µM | [7] 12.3 µM | [8] 20.3 µM | [9] 12.5 µM | [10] 14.4 µM | [19] 39.1 µM | [11] 29.9 µM | [12] 8.55 µM | [13] 19.3 µM | [20] 9.93 µM | [14] 7.89 µM | [15] 10.9 µM | [16] 14.5 µM | [17] 11.9 µM

CC(=O)Nc1c(C(=N)C#N)ncn1CCO
inactive: [1] > 100 µM | [2] > 100 µM | [3] > 100 µM | [4] > 100 µM | [5] > 100 µM | [18] > 100 µM | [6] > 100 µM | [7] > 100 µM | [8] > 100 µM | [9] > 100 µM | [10] > 100 µM | [12] > 100 µM | [13] > 100 µM | [14] > 100 µM | [15] > 100 µM | [16] > 100 µM | [17] > 100 µM

Cc1ncc(CSC(=N)N)n1Cc1ccccc1
inactive: [1] 7.78 µM | [2] > 100 µM | [3] 29.7 µM | [4] 26.1 µM | [5] 82.6 µM | [6] > 100 µM | [8] > 100 µM | [9] > 100 µM | [10] > 100 µM | [12] 66.8 µM | [14] 27.5 µM | [15] 55.8 µM | [16] > 100 µM | [17] 88.3 µM

CCOC(=O)c1nnsc1NC(=O)Nc1ccc(Cc2ccc(NC(=O)Nc3snnc3C(=O)OCC)cc2)cc1
inactive: [1] 18.2 µM | [2] 76 µM | [3] > 100 µM | [4] 45.8 µM | [5] 29.6 µM | [18] > 100 µM | [6] 27.5 µM | [8] 32.7 µM | [9] > 100 µM | [10] > 100 µM | [11] > 100 µM | [12] > 100 µM | [13] 88.5 µM | [14] > 100 µM | [15] 61 µM | [16] 31.9 µM | [17] 25.6 µM
